From US10081629B2, “Amide derivatives and pharmaceutically acceptable salts thereof, preparation method thereof and medicinal application thereof” (Shanghai Hengrui Pharmaceutical Co., Ltd., priority 2014, dated 2018)

What was measured:
human mPGES1 = human mPGES1 (Homo sapiens (Human), UniProt O14684); experiment: Inhibition activity for human mPGES1 (enzyme assay, PGE2 HTRF); assay type: biochemical; details: membrane protein from HEK-293 F transfected with human mPGES1
Protocol: The method described here is used for determining the inhibition activity of the present compounds for human mPGES1.
• 1. PGE2 Assay kit (Cisbio, #62P2APEB) • 2. Prostaglandin H2 (Sigma, #P7867-1MG) • 3. FlexStation3 microplate reader. II. Experimental Procedure • 1. Obtaining the membrane proteins of mPGES1 enzyme
The cell density of HEK-293 F was grown to 6×10^5 per milliliter and was transferred with the plasmid containing human mPGES1 gene by transfection reagent PEI the next day. The cells were continuously cultured for 72 hours at 37° C. with shaking. After centrifuging at 1100 g for 5 minutes, the cells were harvested. After ultrasonication in an ice bath and centrifugation at 5000 g for 10 minutes, the supernatant was obtained. The supernatant was centrifuged at 100000 g for 1 hour to obtain a precipitate. The precipitate was resuspended with storage buffer containing 10% glycerinum, subpackaged and frozen rapidly under liquid nitrogen, and stored at −80° C. • 2. mPGES1 enzyme assay
mPGES1 was diluted with assay buffer and added into plate at 49 μL/well supplemented with 1 μL of compound (the final concentration of each compound at seven gradient concentrations was 10000 nM, 1000 nM, 100 nM, 10 nM, 1 nM, 0.1 nM and 0.01 nM). […] Then, each well was added with 53.8 μL of 6 mg/mL SnCl2 to quench the reaction. The sample was diluted with dilute buffer at 1:400. 10 μl of diluted sample, 5 μL PGE2-d2 and 5 μL anti-PGE2 Cryptate were added to a black 384-well plate, and incubated at 4° C. overnight. HTRF was determined using Flexstation, and the IC50 of the compounds was obtained by data processing software.
The inhibition activity of the present compounds on mPGES1 was tested by the assay described above.

[1] = system: secretion of PGE2 by A549 cells stimulated with IL-1β; experiment: Inhibition of the secretion of PGE2 by A549 cells stimulated with IL-1β; assay type: cell-based; details: Homo sapiens, IL-1β 0.2 ng/mL
Source text: The method described here was used for determining the inhibition activity of the present compounds on the secretion of PGE2 by A549 cells stimulated with IL-1β.
• 1. PGE2 Assay kit (Cisbio, #62P2APEB) • 2. IL-1β (Peprotech, # AF-200-01B) • 3. Cell line: A549 (ATCC: CCL-185) • 4. FlexStation3 microplate reader. II. Experimental Procedure
On the first day, A549 cells were inoculated in a 96-well plate at 40000/well. On the second day, the culture medium in the 96-well plate was removed and then added with 90 μL of compound diluted with culture medium (the concentration of each compound at seven gradient concentrations was 11111 nM, […], 1.11 nM, 0.11 nM and 0.011 nM). The cells were incubated for 30 minutes at 37° C. in an incubator, and then added with IL-1β to a final concentration of 0.2 ng/mL. Then, the cells were incubated for another 24 hours at 37° C. On the third day, 10 μl of supernatant, 5 μL of PGE2-d2 and 5 μL of anti-PGE2 Cryptate were added into a black 384-well plate, and then incubated at 4° C. overnight. HTRF was determined using Flexstation, and the IC50 of the compounds was obtained by data processing software.
The inhibition activity of the present compounds on the secretion of PGE2 by A549 cells stimulated with IL-1β was determined by the assay described above.

[2] = Pharmacokinetics assay in rats; assay type: in vivo; details: both sexes, Sprague-Dawley, rat, plasma, po, SD rats, intragastric, 5 mg/kg; for Vd/F: read-out: Apparent Distribution Volume Vz/F; for AUC: read-out: Area Under Curve AUC; for MRT: read-out: Mean Residence Time MRT; for Cmax: read-out: Plasma Conc. Cmax
Protocol: Rats were used as test animals. The drug concentration in plasma at different time points was determined by LC/MS/MS after administration of the compounds of Example 8, Example 11, Example 14, Example 17, Example 20, Example 27, Example 33, Example 35, Example 36, Example 37 and Example 48 to rats. The pharmacokinetic behavior of the present compounds was studied and evaluated in rats.
Forty four (44) healthy adult Sprague-Dawley (SD) rats, half male and half female, which were purchased from SINO-BRITSH SIPPR/BK LAB. ANIMAL LTD., CO, with Certificate No.: SCXK (Shanghai) 2008-0016, were divided into 11 groups, with 4 rats in each group.
The appropriate amount of test compounds was weighed, and mixed with 25 μL Tween 80 and Labrasol to prepare a 0.6 mg/mL suspension by ultrasonication.
After an overnight fast, 44 SD rats, half male and half female, were divided into 11 groups, and administered intragastrically at a dose of 5.0 mg/kg and an administration volume of 10 mL/kg.
Blood (0.1 mL) was sampled from the orbital sinus before administration and 0.5 h, 1.0 h, 2.0 h, 4.0 h, 6.0 h, 8.0 h, 11.0 h, and 24.0 h after administration. The samples were stored in EDTA anticoagulation tubes, and centrifuged for 5 minutes at 3,500 rpm to separate the blood plasma. The plasma samples were stored at −20° C. The rats were fed 2 hours after administration.
The plasma concentration of the test compounds in rat after intragastric administration was determined by LC-MS/MS. The linearity of the method is 5.00-2000 ng/mL and 1.00-2000 ng/ml, and the minimum of quantification is 5.00 ng/mL and 1.00 ng/mL.
Plasma samples were analyzed after pretreatment by protein precipitation.

human mPGES1, sequence (O14684 whole entry): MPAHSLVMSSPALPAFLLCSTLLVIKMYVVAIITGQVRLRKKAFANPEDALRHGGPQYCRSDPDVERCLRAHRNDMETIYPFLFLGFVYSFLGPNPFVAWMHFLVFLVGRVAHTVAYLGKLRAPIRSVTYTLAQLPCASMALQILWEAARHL

Compound | IC50 (human mPGES1) | IC50 ([1]; A549, 24 hours) | also measured
Cn1c(-c2cccc(Cl)c2)cc2cc(NC(=O)c3cc(CNC(=O)C(C)(C)F)cnc3C(F)F)ccc21 [Example 33, N-(2-(3-Chlorophenyl)-1-methyl-1H-indol-5-yl)-2-(difluoromethyl)-5-(((2-fluoro-2-methyl-propanoyl)amino)methyl)nicotinamide] | 0.00533 µM | 0.0128 µM | Vd/F [2]: 4.82 ± 0.961 L/kg; AUC [2]: 5720 ± 1210 ng·h/mL; MRT [2]: 7.6 ± 1.09 h; Cmax [2]: 557 ± 80 ng/mL
Cn1c(-c2ccc(Cl)cc2)cc2cc(NC(=O)c3cc(CNC(=O)C(C)(C)F)cnc3C(F)F)ccc21 [Example 14, N-(2-(4-Chlorophenyl)-1-methyl-1H-indol-5-yl)-2-(difluoromethyl)-5-(((2-fluoro-2-methyl-propanoyl)amino)methyl)nicotinamide] | 0.00459 µM | – | IC50 ([1]; A549, 24 h): 0.0205 µM; Vd/F [2]: 17.9 ± 3.12 L/kg; AUC [2]: 1790 ± 984 ng·h/mL; CL/F ([2]; read-out: Clearance CLz/F): 56.7 ± 25.4 mL/min/kg; half-life ([2]; read-out: Half-Life T½ (converted)): 4.15 ± 1.59 h; MRT [2]: 9.25 ± 2.24 h; Cmax [2]: 150 ± 56 ng/mL
CC(C)C(=O)NCc1cnc(C(F)F)c(C(=O)Nc2ccc3nn(-c4ccc(C(F)(F)F)cc4)cc3c2)c1 [Example 24, 2-(Difluoromethyl)-5-((2-methylpropanoylamino)methyl)-N-(2-(4-(trifluoromethyl)phenyl)-2H-indazol-5-yl)nicotinamide] | 0.0172 µM | 0.0456 µM | –
CC(C)C(=O)NCc1cnc(C(F)F)c(C(=O)Nc2ccc3oc(-c4ccc(Cl)cc4)nc3c2)c1 [Example 45, N-(2-(4-Chlorophenyl)benzo[d]oxazol-5-yl)-2-(difluoromethyl)-5-((2-methylpropanoylamino)methyl)nicotinamide] | 0.0494 µM | 0.0259 µM | –
CC(C)(C)C(=O)NCc1ccc(Cl)c(C(=O)Nc2ccc3c(c2)C(=O)N(c2ccc(C(F)(F)F)cc2)C3)c1 [Example 58] | 0.00851 µM | 0.00218 µM | –
CCn1c(-c2ccccc2Cl)cc2cc(NC(=O)c3cc(CNC(=O)C(C)(C)F)cnc3C(F)F)ccc21 [Example 19, N-(2-(2-Chlorophenyl)-1-ethyl-1H-indol-5-yl)-2-(difluoromethyl)-5-(((2-fluoro-2-methyl-propanoyl)amino)methyl)nicotinamide] | 0.00812 µM | 0.0426 µM | –
CC(C)(C)C(=O)NCc1ccc(Cl)c(C(=O)Nc2ccc3nn(-c4ccc(Cl)cc4)cc3c2)c1 [Example 16, 2-Chloro-N-(2-(4-chlorophenyl)-2H-indazol-5-yl)-5-((2,2-dimethylpropanoylamino)methyl)benzamide] | 0.00931 µM | 0.0262 µM | –
CC(C)(F)C(=O)NCc1cnc(C(F)F)c(C(=O)Nc2ccc3c(c2)CN(c2ccc(C(F)(F)F)cc2)C3)c1 [Example 26, 2-(Difluoromethyl)-5-(((2-fluoro-2-methyl-propanoyl)amino)methyl)-N-(2-(4-(trifluoromethyl)phenyl)isoindolin-5-yl)nicotinamide] | 0.00338 µM | 0.0461 µM | –
CC(C)(F)C(=O)NCc1cnc(C(F)F)c(C(=O)Nc2ccc3c(c2)cc(-c2ccc(Cl)cc2)n3[C@@H]2CCOC2)c1 [Example 47, (R)-N-(2-(4-Chlorophenyl)-1-(tetrahydrofuran-3-yl)-1H-indol-5-yl)-2-(difluoromethyl)-5-(((2-fluoro-2-methyl-propanoyl)amino)methyl)nicotinamide] | 0.00572 µM | 0.0189 µM | –
Cn1c(-c2ccc(F)cc2)cc2cc(NC(=O)c3cc(CNC(=O)C4(C(F)(F)F)CC4)ccc3Cl)ccc21 [Example 34, 2-Chloro-N-(2-(4-fluorophenyl)-1-methyl-1H-indol-5-yl)-5-(((1-(trifluoromethyl)cyclopropanecarbonyl)amino)methyl)benzamide] | 0.00775 µM | 0.0122 µM | –
CC(C)(C)C(=O)NCc1ccc(Cl)c(C(=O)Nc2ccc3oc(-c4ccc(C(F)(F)F)cc4)nc3c2)c1 [Example 22, 2-Chloro-5-((2,2-dimethylpropanoylamino)methyl)-N-(2-(4-(trifluoromethyl)phenyl)benzo[d]oxazol-5-yl)benzamide] | 0.00669 µM | 0.0388 µM | –
CC(C)(F)C(=O)NCc1cnc(C(F)F)c(C(=O)Nc2ccc3c(c2)cc(-c2ccc(Cl)cc2)n3[C@H]2CCOC2)c1 [Example 46, (S)-N-(2-(4-Chlorophenyl)-1-(tetrahydrofuran-3-yl)-1H-indol-5-yl)-2-(difluoromethyl)-5-(((2-fluoro-2-methyl-propanoyl)amino)methyl)nicotinamide] | 0.00271 µM | 0.0247 µM | –
CC(C)(C)C(=O)NCc1ccc(Cl)c(C(=O)Nc2ccc3c(c2)C(=O)N(c2ccc(Cl)cc2)C3)c1 [Example 57, 2-Chloro-N-(2-(4-chlorophenyl)-3-oxo-isoindolin-5-yl)-5-((2,2-dimethylpropanoylamino)methyl)benzamide] | 0.00675 µM | 0.00622 µM | –
CC(C)(C)C(=O)NCc1ccc(Cl)c(C(=O)Nc2ccc3c(c2)CN(c2ccc(C(F)(F)F)cc2)C3)c1 [Example 25, 2-Chloro-5-((2,2-dimethylpropanoylamino)methyl)-N-(2-(4-(trifluoromethyl)phenyl)isoindolin-5-yl)benzamide] | 0.0119 µM | 0.0476 µM | –
CC1(C(=O)NCc2cnc(C(F)F)c(C(=O)Nc3ccc4oc(-c5ccc(C(F)(F)F)cc5)nc4c3)c2)CC1 [Example 43, 2-(Difluoromethyl)-5-(((1-methylcyclopropanecarbonyl)amino)methyl)-N-(2-(4-(trifluoromethyl)phenyl)benzo[d]oxazol-5-yl)nicotinamide] | 0.016 µM | 0.0582 µM | –
CC(C)C(=O)NCc1cnc(C(F)F)c(C(=O)Nc2ccc3c(c2)CN(c2ccc(C(F)(F)F)cc2)C3)c1 [Example 40, 2-(Difluoromethyl)-5-((2-methylpropanoylamino)methyl)-N-(2-(4-(trifluoromethyl)phenyl)isoindolin-5-yl)nicotinamide] | 0.0224 µM | 0.0169 µM | –
